These results are taken from US20250270172A1, “Pyrimidine Derivatives As Modulators of the 5-HT2A Serotonin Receptor Useful For The Treatment of Disorders Related Thereto” (Arena Pharmaceuticals, Inc., priority 2020, published 2025).

Where two headings read alike, the source gives them in different places.

In this experiment the target is 5-HT2A (Homo sapiens (Human), UniProt P28223). As to the kind of experiment: Radioligand binding assay, [^3H]5-HT competition, 5-HT2A. The settings on record: read-out: 5-HT2A serotonin binding Ki value.
Sequence of 5-HT2A (P28223 whole entry): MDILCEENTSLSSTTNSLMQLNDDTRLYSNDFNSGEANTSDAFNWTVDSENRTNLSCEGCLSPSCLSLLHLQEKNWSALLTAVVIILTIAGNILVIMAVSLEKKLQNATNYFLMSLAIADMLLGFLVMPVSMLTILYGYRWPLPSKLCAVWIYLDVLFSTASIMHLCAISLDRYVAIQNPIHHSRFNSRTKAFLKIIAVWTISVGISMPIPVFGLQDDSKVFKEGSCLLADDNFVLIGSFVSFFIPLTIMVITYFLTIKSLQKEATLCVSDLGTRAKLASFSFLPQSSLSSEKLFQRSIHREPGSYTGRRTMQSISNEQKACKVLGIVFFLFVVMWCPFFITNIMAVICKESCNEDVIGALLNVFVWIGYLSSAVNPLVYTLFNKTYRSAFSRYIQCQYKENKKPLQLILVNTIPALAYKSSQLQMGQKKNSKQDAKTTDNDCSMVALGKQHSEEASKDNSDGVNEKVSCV
Setting [1] is: [^3H]5-HT radioligand, membranes of HEK293 cells expressing recombinant 5-HT2A, Ki from IC50 by Cheng-Prusoff.

As usually defined, the Ki is the equilibrium dissociation constant of an inhibitor or competing ligand from its target. As to `Cc1ncnc(C)c1-c1cc(NC(=O)c2ccccc2F)ccc1OCCN1CCCC1` [Compound 298, N-(3-(4,6-dimethylpyrimidin-5-yl)-4-(2-(pyrrolidin-1-yl)ethoxy)phenyl)-2-fluorobenzamide], the Ki under setting [1] worked out at 16.9 nM.

On to `Cc1ccccc1C(=O)Nc1ccc(OCCN2CCCC2)c(-c2c(C)ncnc2C)c1` [Compound 299, N-(3-(4,6-dimethylpyrimidin-5-yl)-4-(2-(pyrrolidin-1-yl)ethoxy)phenyl)-2-methylbenzamide], for which, under setting [1], the Ki worked out at 20.6 nM. For the compound `Cc1cccc(C(=O)Nc2ccc(OCCN3CCCC3)c(-c3c(C)ncnc3C)c2)c1` [Compound 300, N-(3-(4,6-dimethylpyrimidin-5-yl)-4-(2-(pyrrolidin-1-yl)ethoxy)phenyl)-3-methylbenzamide], the inhibition constant Ki under setting [1] worked out at 1.48 nM. The same measure, in the same setting: with `Cc1ccc(C(=O)Nc2ccc(OCCN3CCCC3)c(-c3c(C)ncnc3C)c2)cc1` [Compound 301, N-(3-(4,6-dimethylpyrimidin-5-yl)-4-(2-(pyrrolidin-1-yl)ethoxy)phenyl)-4-methylbenzamide] the figure was 3.4 nM; with `Cc1ncnc(C)c1-c1cc(NC(=O)[C@H]2C[C@@H](F)C2)ccc1OCCN1CCCC1` [Compound 302, (1s,3s)-N-(3-(4,6-dimethylpyrimidin-5-yl)-4-(2-(pyrrolidin-1-yl)ethoxy)phenyl)-3-fluorocyclobutane-1-carboxamide], 3.18 nM.

Take `Cc1ncnc(C)c1-c1cc(NC(=O)[C@H]2C[C@H](F)C2)ccc1OCCN1CCCC1` [Compound 303, (1r,3r)-N-(3-(4,6-dimethylpyrimidin-5-yl)-4-(2-(pyrrolidin-1-yl)ethoxy)phenyl)-3-fluorocyclobutane-1-carboxamide]: the Ki under setting [1] turned out to be 9.36 nM. On to `COc1cccc(CC(=O)Nc2ccc(OCCN3CCC3)c(-c3c(C)ncnc3C)c2)c1` [Compound 311, N-(4-(2-(azetidin-1-yl)ethoxy)-3-(4,6-dimethylpyrimidin-5-yl)phenyl)-2-(3-methoxyphenyl)acetamide], for which the Ki under setting [1] came out at 3.01 nM. Turning to `COc1ccc(CC(=O)Nc2ccc(OCCN3CCC3)c(-c3c(C)ncnc3C)c2)cc1` [Compound 313, N-(4-(2-(azetidin-1-yl)ethoxy)-3-(4,6-dimethylpyrimidin-5-yl)phenyl)-2-(4-methoxyphenyl)acetamide], under setting [1], the Ki amounted to 1.7 nM. Still for that read-out and setting: with `Cc1ncnc(C)c1-c1cc(NC(=O)Cc2ccc(F)cn2)ccc1OCCN1CCC1` [Compound 315, N-(4-(2-(azetidin-1-yl)ethoxy)-3-(4,6-dimethylpyrimidin-5-yl)phenyl)-2-(5-fluoropyridin-2-yl)acetamide] the figure was 12.6 nM; with `CCOC1CC1C(=O)Nc1ccc(OCCN2CCC2)c(-c2c(C)ncnc2C)c1` (stereo not shown) [Compound 317, N-(4-(2-(azetidin-1-yl)ethoxy)-3-(4,6-dimethylpyrimidin-5-yl)phenyl)-2-ethoxycyclopropane-1-carboxamide], 96.3 nM.

In the case of `Cc1ncnc(C)c1-c1cc(NC(=O)c2cccc(F)c2)ccc1OCCN1CCC1` [Compound 320, N-(4-(2-(azetidin-1-yl)ethoxy)-3-(4,6-dimethylpyrimidin-5-yl)phenyl)-3-fluorobenzamide], the Ki under setting [1] is 1.77 nM. Same read-out and setting: with `Cc1cccc(C(=O)Nc2ccc(OCCN3CCC3)c(-c3c(C)ncnc3C)c2)c1` [Compound 322, N-(4-(2-(azetidin-1-yl)ethoxy)-3-(4,6-dimethylpyrimidin-5-yl)phenyl)-3-methylbenzamide] the figure was 3.39 nM. Consider `Cc1ccc(C(=O)Nc2ccc(OCCN3CCC3)c(-c3c(C)ncnc3C)c2)cc1` [Compound 323, N-(4-(2-(azetidin-1-yl)ethoxy)-3-(4,6-dimethylpyrimidin-5-yl)phenyl)-4-methylbenzamide], for which the Ki under setting [1] is 3.77 nM. Still for that read-out and setting: with `Cc1ncnc(C)c1-c1cc(NC(=O)c2ccccc2C#N)ccc1OCCN1CCC1` [Compound 324, N-(4-(2-(azetidin-1-yl)ethoxy)-3-(4,6-dimethylpyrimidin-5-yl)phenyl)-2-cyanobenzamide] the figure was 59700 nM; with `Cc1ncnc(C)c1-c1cc(NC(=O)c2ccc(C#N)cc2)ccc1OCCN1CCC1` [Compound 326, N-(4-(2-(azetidin-1-yl)ethoxy)-3-(4,6-dimethylpyrimidin-5-yl)phenyl)-4-cyanobenzamide], 13.7 nM. Same read-out and setting: with `Cc1cnn(C)c1C(=O)Nc1ccc(OCCN2CCC2)c(-c2c(C)ncnc2C)c1` [Compound 327, N-(4-(2-(azetidin-1-yl)ethoxy)-3-(4,6-dimethylpyrimidin-5-yl)phenyl)-1,4-dimethyl-1H-pyrazole-5-carboxamide] the figure was 15.9 nM; with `Cc1ncnc(C)c1-c1cc(NC(=O)C2(CF)CC2)ccc1OCCN1CCC1` [Compound 328, N-(4-(2-(azetidin-1-yl)ethoxy)-3-(4,6-dimethylpyrimidin-5-yl)phenyl)-1-(fluoromethyl)cyclopropane-1-carboxamide], 13.6 nM; with `Cc1ncnc(C)c1-c1cc(NC(=O)Cc2nccs2)ccc1OCCN1CCC1` [Compound 329, N-(4-(2-(azetidin-1-yl)ethoxy)-3-(4,6-dimethylpyrimidin-5-yl)phenyl)-2-(thiazol-2-yl)acetamide], 11.5 nM. Same read-out and setting: with `Cc1ncnc(C)c1-c1cc(NC(=O)c2ncccc2F)ccc1OCCN1CCC1` [Compound 330, N-(4-(2-(azetidin-1-yl)ethoxy)-3-(4,6-dimethylpyrimidin-5-yl)phenyl)-3-fluoropicolinamide] the figure was 334 nM; with `Cc1ncnc(C)c1-c1cc(NC(=O)c2cnccc2F)ccc1OCCN1CCC1` [Compound 331, N-(4-(2-(azetidin-1-yl)ethoxy)-3-(4,6-dimethylpyrimidin-5-yl)phenyl)-4-fluoronicotinamide], 23.7 nM; with `Cc1ncnc(C)c1-c1cc(NC(=O)c2ccncc2F)ccc1OCCN1CCC1` [Compound 332, N-(4-(2-(azetidin-1-yl)ethoxy)-3-(4,6-dimethylpyrimidin-5-yl)phenyl)-3-fluoroisonicotinamide], 18.6 nM.

On to `Cc1ncnc(C)c1-c1cc(NC(=O)c2ncncc2F)ccc1OCCN1CCC1` [Compound 333, N-(4-(2-(azetidin-1-yl)ethoxy)-3-(4,6-dimethylpyrimidin-5-yl)phenyl)-5-fluoropyrimidine-4-carboxamide], for which the Ki under setting [1] stood at 224 nM. The same measure, in the same setting: the figure for `CC(=O)N1CCN(CCOc2ccc(NC(=O)C3CC3)cc2-c2c(C)ncnc2C)CC1` [Compound 334, N-[4-[2-(4-acetylpiperazin-1-yl)ethoxy]-3-(4,6-dimethylpyrimidin-5-yl)phenyl]cyclopropanecarboxamide] is 17.6 nM; for `Cc1ncnc(C)c1-c1cc(NC(=O)C2CC2)ccc1OCCN1CCC(CC(=O)O)CC1` [Compound 335, 2-[1-[2-[4-(cyclopropanecarbonylamino)-2-(4,6-dimethylpyrimidin-5-yl)phenoxy]ethyl]-4-piperidyl]acetic acid] it is 196 nM; for `Cc1ncnc(C)c1-c1cc(NC(=O)C2CC2)ccc1OCCN1C[C@@H]2C[C@H]1CO2` [Compound 336, N-[3-(4,6-dimethylpyrimidin-5-yl)-4-[2-[(1S,4S)-2-oxa-5-azabicyclo[2.2.1]heptan-5-yl]ethoxy]phenyl]cyclopropanecarboxamide] it is 6.42 nM.

Take `Cc1ncnc(C)c1-c1cc(NC(=O)C2CC2)ccc1OCCN1[C@@H]2COC[C@H]1C2` [Compound 337, N-[3-(4,6-dimethylpyrimidin-5-yl)-4-[2-[(1S,5R)-3-oxa-6-azabicyclo[3.1.1]heptan-6-yl]ethoxy]phenyl]cyclopropanecarboxamide]: under setting [1], the Ki is 7.29 nM. `Cc1ncnc(C)c1-c1cc(NC(=O)C2CC2)ccc1OCCN1CCC(CC(=O)O)C1` (stereo not shown) [Compound 338, 2-[1-[2-[4-(cyclopropanecarbonylamino)-2-(4,6-dimethylpyrimidin-5-yl)phenoxy]ethyl]pyrrolidin-3-yl]acetic acid]: the Ki amounted to 485 nM. As for `Cc1ncnc(C)c1-c1cc(NC(=O)C2CC2)ccc1OCCN1CCN(C(=O)CO)CC1` [Compound 339, N-[3-(4,6-dimethylpyrimidin-5-yl)-4-[2-[4-(2-hydroxyacetyl)piperazin-1-yl]ethoxy]phenyl]cyclopropanecarboxamide], the Ki under setting [1] was found to be 18.4 nM. Still for that read-out and setting: the figure for `Cc1ncnc(C)c1-c1cc(NC(=O)C2CC2)ccc1OCCN1CCN(C(=O)C(=O)O)CC1` [Compound 340, 2-[4-[2-[4-(cyclopropanecarbonylamino)-2-(4,6-dimethylpyrimidin-5-yl)phenoxy]ethyl]piperazin-1-yl]-2-oxo-acetic acid] is 374 nM; for `Cc1ncnc(C)c1-c1cc(NC(=O)C2CC2)ccc1OCCN1CCN(C=O)CC1` [Compound 341, N-[3-(4,6-dimethylpyrimidin-5-yl)-4-[2-(4-formylpiperazin-1-yl)ethoxy]phenyl]cyclopropanecarboxamide] it is 9.84 nM; for `Cc1ncnc(C)c1-c1cc(NC(=O)C2CC2)ccc1OCCN1CCN(S(C)(=O)=O)CC1` [Compound 342, N-[3-(4,6-dimethylpyrimidin-5-yl)-4-[2-(4-methylsulfonylpiperazin-1yl)ethoxy]phenyl]cyclopropanecarboxamide] it is 6.95 nM. For the compound `Cc1ncnc(C)c1-c1cc(NC(=O)C2CC2)ccc1OCCN1CCN2C(=O)OCC2C1` (stereo not shown) [Compound 343, N-[3-(4,6-dimethylpyrimidin-5-yl)-4-[2-(3-oxo-5,6,8,8a-tetrahydro-1H-oxazolo[3,4-a]pyrazin-7-yl)ethoxy]phenyl]cyclopropanecarboxamide], the Ki under setting [1] is 48.4 nM.

For `Cc1ncnc(C)c1-c1cc(NC(=O)C2CC2)ccc1OCCN1CC2(COC2)C1` [Compound 345, N-(4-(2-(2-oxa-6-azaspiro[3.3]heptan-6-yl)ethoxy)-3-(4,6-dimethylpyrimidin-5-yl)phenyl)cyclopropanecarboxamide], the Ki under setting [1] stood at 19.5 nM. Same read-out and setting: with `Cc1ncnc(C)c1-c1cc(NC(=O)C2CC2)ccc1OCCN1CCN2C(=O)CCC2C1` (stereo not shown) [Compound 346, N-(3-(4,6-dimethylpyrimidin-5-yl)-4-(2-(6-oxohexahydropyrrolo[1,2-a]pyrazin-2 (1H)-yl)ethoxy)phenyl)cyclopropanecarboxamide] the figure was 31 nM.
